Test results as given in ChEMBL document CHEMBL5360571, “Design, synthesis and in vitro/in vivo anticancer activity of tranylcypromine-based triazolopyrimidine analogs as novel LSD1 inhibitors” (Eur J Med Chem, 2023).

Assays:
[1] = target: T1, MAO-A (amine oxidase [flavin-containing] A) (Homo sapiens, UniProt P21397); experiment: Inhibition of recombinant MAO-A (unknown origin) using luciferin derivative as substrate measured at 1 uM for 60 mins by plate reader analysis relative to control; settings: probe luciferin derivative
T1 sequence (P21397 whole entry): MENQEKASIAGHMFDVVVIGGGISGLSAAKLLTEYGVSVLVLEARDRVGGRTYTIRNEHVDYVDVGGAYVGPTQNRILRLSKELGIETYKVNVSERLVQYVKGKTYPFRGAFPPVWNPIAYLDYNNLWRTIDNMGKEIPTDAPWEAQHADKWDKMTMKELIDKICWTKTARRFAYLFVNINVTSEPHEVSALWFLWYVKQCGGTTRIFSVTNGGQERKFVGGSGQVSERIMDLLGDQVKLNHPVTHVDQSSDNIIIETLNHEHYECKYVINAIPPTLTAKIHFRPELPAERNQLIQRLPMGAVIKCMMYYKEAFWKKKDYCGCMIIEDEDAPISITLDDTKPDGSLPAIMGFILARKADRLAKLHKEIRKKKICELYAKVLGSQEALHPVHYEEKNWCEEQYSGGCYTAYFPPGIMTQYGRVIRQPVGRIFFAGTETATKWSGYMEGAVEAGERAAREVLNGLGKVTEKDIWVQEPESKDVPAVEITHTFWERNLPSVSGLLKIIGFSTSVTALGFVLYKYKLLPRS

[2] = target: T2, MAO-B (amine oxidase [flavin-containing] B) (Homo sapiens, UniProt P27338); experiment: Inhibition of recombinant MAO-B (unknown origin) using luciferin derivative as substrate measured at 1 uM for 60 mins by plate reader analysis relative to control; settings: probe luciferin derivative
T2 sequence (P27338 whole entry): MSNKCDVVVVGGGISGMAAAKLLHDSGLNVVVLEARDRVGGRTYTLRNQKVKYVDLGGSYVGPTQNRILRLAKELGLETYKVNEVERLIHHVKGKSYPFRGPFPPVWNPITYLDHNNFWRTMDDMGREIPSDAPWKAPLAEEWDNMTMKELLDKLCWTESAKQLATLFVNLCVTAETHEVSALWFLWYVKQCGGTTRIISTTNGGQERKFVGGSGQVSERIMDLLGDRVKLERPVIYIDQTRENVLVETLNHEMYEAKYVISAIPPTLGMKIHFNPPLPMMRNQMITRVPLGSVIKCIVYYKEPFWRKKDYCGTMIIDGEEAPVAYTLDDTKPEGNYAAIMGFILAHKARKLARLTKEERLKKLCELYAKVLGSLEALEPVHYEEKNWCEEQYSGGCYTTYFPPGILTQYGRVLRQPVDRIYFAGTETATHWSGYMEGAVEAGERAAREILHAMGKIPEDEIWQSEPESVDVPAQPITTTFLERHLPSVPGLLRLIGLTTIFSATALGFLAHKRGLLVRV

NCI-H1650 [3] = experiment: Induction of apoptosis in human NCI-H1650 cells assessed as viable cells measured at 1 uM for 24 hrs by annexin V-PI staining based flow cytometric analysis (reference value: 87.4%); assay type: functional; settings: read-out: Activity
NCI-H1650 [4] = experiment: Induction of apoptosis in human NCI-H1650 cells assessed as early apoptotic cells measured at 1 uM for 24 hrs by annexin V-PI staining based flow cytometric analysis (reference value: 11.2%); assay type: functional
NCI-H1650 [5] = experiment: Induction of apoptosis in human NCI-H1650 cells assessed as late apoptotic cells measured at 1 uM for 24 hrs by annexin V-PI staining based flow cytometric analysis (reference value: 1.46%); assay type: functional
NCI-H1650 [6] = experiment: Induction of apoptosis in human NCI-H1650 cells assessed as necrotic cells measured at 1 uM for 24 hrs by annexin V-PI staining based flow cytometric analysis (reference value: 0.008%); assay type: functional
NCI-H1650 [7] = experiment: Induction of apoptosis in human NCI-H1650 cells assessed as viable cells measured at 2 uM for 24 hrs by annexin V-PI staining based flow cytometric analysis (reference value: 87.4%); assay type: functional; settings: read-out: Activity
NCI-H1650 [8] = experiment: Induction of apoptosis in human NCI-H1650 cells assessed as early apoptotic cells measured at 2 uM for 24 hrs by annexin V-PI staining based flow cytometric analysis (reference value: 11.2%); assay type: functional
NCI-H1650 [9] = experiment: Induction of apoptosis in human NCI-H1650 cells assessed as late apoptotic cells measured at 2 uM for 24 hrs by annexin V-PI staining based flow cytometric analysis (reference value: 1.46%); assay type: functional
NCI-H1650 [10] = experiment: Induction of apoptosis in human NCI-H1650 cells assessed as necrotic cells measured at 2 uM for 24 hrs by annexin V-PI staining based flow cytometric analysis (reference value: 0.008%); assay type: functional
NCI-H1650 [11] = experiment: Induction of apoptosis in human NCI-H1650 cells assessed as viable cells measured at 4 uM for 24 hrs by annexin V-PI staining based flow cytometric analysis (reference value: 87.4%); assay type: functional; settings: read-out: Activity
NCI-H1650 [12] = experiment: Induction of apoptosis in human NCI-H1650 cells assessed as early apoptotic cells measured at 4 uM for 24 hrs by annexin V-PI staining based flow cytometric analysis (reference value: 11.2%); assay type: functional
NCI-H1650 [13] = experiment: Induction of apoptosis in human NCI-H1650 cells assessed as late apoptotic cells measured at 4 uM for 24 hrs by annexin V-PI staining based flow cytometric analysis (reference value: 1.46%); assay type: functional
NCI-H1650 [14] = experiment: Induction of apoptosis in human NCI-H1650 cells assessed as necrotic cells measured at 4 uM for 24 hrs by annexin V-PI staining based flow cytometric analysis (reference value: 0.008%); assay type: functional
NCI-H1650 [15] = experiment: Induction of apoptosis in human NCI-H1650 cells assessed as apoptotic cells measured at 1 uM for 24 hrs by annexin V-PI staining based flow cytometric analysis (reference value: 12.7%); assay type: functional
NCI-H1650 [16] = experiment: Induction of apoptosis in human NCI-H1650 cells assessed as apoptotic cells measured at 2 uM for 24 hrs by annexin V-PI staining based flow cytometric analysis (reference value: 12.7%); assay type: functional
NCI-H1650 [17] = experiment: Induction of apoptosis in human NCI-H1650 cells assessed as apoptotic cells measured at 4 uM for 24 hrs by annexin V-PI staining based flow cytometric analysis (reference value: 12.7%); assay type: functional
NCI-H1650 [18] = experiment: Induction of cell cycle arrest in human NCI-H1650 cells assessed as accumulation of cells in G1 phase measured at 1 uM for 24 hrs by annexin V-PI staining based flow cytometric analysis (reference value: 52.04%); assay type: functional
NCI-H1650 [19] = experiment: Induction of cell cycle arrest in human NCI-H1650 cells assessed as accumulation of cells in G2 phase measured at 1 uM for 24 hrs by annexin V-PI staining based flow cytometric analysis (reference value: 18.00%); assay type: functional
NCI-H1650 [20] = experiment: Induction of cell cycle arrest in human NCI-H1650 cells assessed as accumulation of cells in S phase measured at 1 uM for 24 hrs by annexin V-PI staining based flow cytometric analysis (reference value: 29.97%); assay type: functional
NCI-H1650 [21] = experiment: Induction of cell cycle arrest in human NCI-H1650 cells assessed as accumulation of cells in G1 phase measured at 2 uM for 24 hrs by annexin V-PI staining based flow cytometric analysis (reference value: 52.04%); assay type: functional
NCI-H1650 [22] = experiment: Induction of cell cycle arrest in human NCI-H1650 cells assessed as accumulation of cells in G2 phase measured at 2 uM for 24 hrs by annexin V-PI staining based flow cytometric analysis (reference value: 18.00%); assay type: functional
NCI-H1650 [23] = experiment: Induction of cell cycle arrest in human NCI-H1650 cells assessed as accumulation of cells in S phase measured at 2 uM for 24 hrs by annexin V-PI staining based flow cytometric analysis (reference value: 29.97%); assay type: functional
NCI-H1650 [24] = experiment: Induction of cell cycle arrest in human NCI-H1650 cells assessed as accumulation of cells in G1 phase measured at 4 uM for 24 hrs by annexin V-PI staining based flow cytometric analysis (reference value: 52.04%); assay type: functional
NCI-H1650 [25] = experiment: Induction of cell cycle arrest in human NCI-H1650 cells assessed as accumulation of cells in G2 phase measured at 4 uM for 24 hrs by annexin V-PI staining based flow cytometric analysis (reference value: 18.00%); assay type: functional
NCI-H1650 [26] = experiment: Induction of cell cycle arrest in human NCI-H1650 cells assessed as accumulation of cells in S phase measured at 4 uM for 24 hrs by annexin V-PI staining based flow cytometric analysis (reference value: 29.97%); assay type: functional
NCI-H1650 [27] = experiment: Antitumor activity against human NCI-H1650 cells xenografted in mouse assessed as reduction of tumor weight at 10 mg/kg, po for 21 days relative to control; assay type: ADME, organism-based; set-up: scale not given: the % may be the effect or the level left; settings: in vivo, 504 h, time 21 day
NCI-H1650 [28] = experiment: Antitumor activity against human NCI-H1650 cells xenografted in mouse assessed as reduction of tumor weight at 20 mg/kg, po for 21 days relative to control; assay type: ADME, organism-based; set-up: scale not given: the % may be the effect or the level left; settings: in vivo, 504 h, time 21 day
[29] = Toxicity in mouse xenografted with human NCI-H1650 cells assessed as change in body weight at 10 to 20 mg/kg, po measured every 4 days for 21 days; assay type: organism-based; settings: in vivo, 504 h, dose 10-20 mg/kg, time 21 day
[30] = Toxicity in mouse xenografted with human NCI-H1650 cells assessed as increase in survival rate at 10 to 20 mg/kg, po treated for 21 days measured every 10 days for 50 days; assay type: organism-based; settings: in vivo, 504 h, dose 10-20 mg/kg, time 21 day
MGC-803 [31] = experiment: cells; settings: Homo sapiens, MGC-803, 72 h
Description: Antiproliferative activity against human MGC-803 cells incubated for 72 hrs by MTT assay

MGC-803 [32] = experiment: cells; settings: Homo sapiens, MGC-803, 72 h; remark: listed apart in the source
Description: Antiproliferative activity against human MGC-803 LSD knock out cells incubated for 72 hrs by MTT assay

SGC-7901 = experiment: cells; settings: Homo sapiens, SGC-7901, 72 h
Description: Antiproliferative activity against human SGC-7901 cells incubated for 72 hrs by MTT assay

GES1 = experiment: cells; settings: Homo sapiens, GES1, 72 h
Description: Antiproliferative activity against human GES1 cells incubated for 72 hrs by MTT assay

MCF7 = experiment: cells; settings: Homo sapiens, MCF7, 72 h
Description: Antiproliferative activity against human MCF7 cells incubated for 72 hrs by MTT assay

NCI-H1650 [33] = experiment: cells; settings: Homo sapiens, NCI-H1650, 72 h
Description: Antiproliferative activity against human NCI-H1650 cells incubated for 72 hrs by MTT assay

A549 = experiment: cells; settings: Homo sapiens, A549, 72 h
Description: Antiproliferative activity against human A549 cells incubated for 72 hrs by MTT assay

NCI-H460 = experiment: cells; settings: Homo sapiens, NCI-H460, 72 h
Description: Antiproliferative activity against human NCI-H460 cells incubated for 72 hrs by MTT assay

PC-3 = experiment: cells; settings: Homo sapiens, PC-3, 72 h
Description: Antiproliferative activity against human PC-3 cells incubated for 72 hrs by MTT assay

ECa-109 cell line = experiment: cells; settings: Homo sapiens, ECa-109, 72 h
Description: Antiproliferative activity against human EC109 cells incubated for 72 hrs by MTT assay

Structure (SMILES): CCCSc1nc(Oc2c(OC)cc(CN[C@@H]3C[C@H]3c3ccccc3)cc2OC)c2nnn(Cc3cccc(Cl)c3)c2n1
- inhibition at 1 h, 1 µM [1]: 25.5%
- inhibition at 1 h, 1 µM [2]: 52%
- viability at 1 µM (NCI-H1650 [3]): 56.1%
- Activity (NCI-H1650 [4]): 40.3%
- Activity (NCI-H1650 [5]): 3.6%
- Activity (NCI-H1650 [6]): 0.022%
- viability at 2 µM (NCI-H1650 [7]): 55.4%
- Activity (NCI-H1650 [8]): 38.5%
- Activity (NCI-H1650 [9]): 6.02%
- Activity (NCI-H1650 [10]): 0.138%
- viability at 4 µM (NCI-H1650 [11]): 54.3%
- Activity (NCI-H1650 [12]): 38.4%
- Activity (NCI-H1650 [13]): 7.32%
- Activity (NCI-H1650 [14]): 0.041%
- Activity (NCI-H1650 [15]): 43.9%
- Activity (NCI-H1650 [16]): 44.5%
- Activity (NCI-H1650 [17]): 45.7%
- Activity (NCI-H1650 [18]): 51.44%
- Activity (NCI-H1650 [19]): 15.24%
- Activity (NCI-H1650 [20]): 33.32%
- Activity (NCI-H1650 [21]): 49.59%
- Activity (NCI-H1650 [22]): 10.6%
- Activity (NCI-H1650 [23]): 39.81%
- Activity (NCI-H1650 [24]): 48.98%
- Activity (NCI-H1650 [25]): 7.76%
- Activity (NCI-H1650 [26]): 43.26%
- Activity (NCI-H1650 [27]): 41.5%
- Activity (NCI-H1650 [28]): 64%
- Activity [29]: Non-Toxic
- Activity [30]: Non-Toxic
- IC50 (MGC-803 [31]): 5.1 µM
- IC50 (MGC-803 [32]): > 20 µM
- IC50 (SGC-7901): 9.5 µM
- IC50 (GES1): > 20 µM
- IC50 (MCF7): 13.4 µM
- IC50 (NCI-H1650 [33]): 4.3 µM
- IC50 (A549): 7.9 µM
- IC50 (NCI-H460): 13.6 µM
- IC50 (PC-3): 7.5 µM
- IC50 (ECa-109 cell line): 15.2 µM
